In paper PMC4977753, “Inhibition of ADAM10 promotes the clearance of Aβ across the BBB by reducing LRP1 ectodomain shedding” (Fluids and Barriers of the CNS, 2016):

Tests used:
[1] = tested on: LRP1 shedding in human brain endothelial cells (HBMEC); experiment: In vitro LRP1 shedding in HBMEC monolayers (LRP1 ELISA of extracellular media); assay type: cell-based; details: 48 h, 37 °C
Method: Human Brain Microvessel endothelial cells (HBMECs) (ScienCell, USA) were seeded at 50,000 cells per cm^2 onto fibronectin-coated 6-well plates as previously described by our group. When approximately 90 % confluent, cells were treated with Aβ42 (2 μM) or both Aβ42 and the ADAM10-selective inhibitor GI254023X (1 μM) (Sigma-Aldrich, USA) and incubated at 37 °C for 48 h. […] After the 48 h incubation, the extracellular media was collected and the level of soluble LRP1 was assessed using an ELISA for LRP1 (Cat# SEB010Hu, Cedar Lane Labs, USA).
Fig. 1 LRP1shedding in human brain endothelial cells (HBMEC) following ADAM10 inhibition. HBMEC monolayers were exposed to human Aβ42 (2 μM) alone, Aβ42 (2 μM) and the ADAM10 inhibitor GI254023X (1 μM) for 48 h at 37 °C. LRP shedding was assessed by examining LRP content in the extracellular media using an LRP1 ELISA. Values represent mean ± SEM (n = 3) and are expressed as ng of extracellular LRP1 per ml of media. *p < 0.05 as determined by one-way ANOVA followed by Tukey’s post hoc analysis

[2] = tested on: in vitro BBB model (HBMEC monolayer); experiment: Fluorescein-Aβ42 transit across an in vitro BBB model; assay type: cell-based, human; details: fluorescein-Aβ42 2 μM basolateral, 60 min, 37 °C, basolateral-to-apical, n = 3
Method: The impact of ADAM10 on Aβ42 transcytosis was assessed using an in vitro BBB model previously described by our group. HBMECs were seeded onto fibronectin-coated 24-well membrane inserts forming a polarized monolayer representing the BBB. Aβ transcytosis across the BBB was assessed by exposing the basolateral side (“brain”) to 2 μM fluorescein-Aβ42 (rPeptide, USA) and treating the apical side (“blood”) with the ADAM10-selective inhibitor GI254023X (0.1–1 μM). After 60 min of incubation at 37 °C, samples were collected from the apical compartment to assess the basolateral-to-apical transcytosis of fluorescein-Aβ across the BBB model.
Fig. 2 Fluorescin-Aβ42 transit across an in vitro BBB model following ADAM10 inhibition. Fluorescin-Aβ42 (2 μM) was exposed to the basolateral (“brain”) side of the in vitro BBB model, while various concentrations of the ADAM10 inhibitor GI254023X (0, 0.1, 1, and 10 μM) were exposed to the apical (“blood”) compartment. Following incubation at 37 °C, samples were collected from the […] at 60 min to assess the basolateral-to-apical transcytosis of fluorescin-Aβ42 across the BBB model. Values represent mean ± SEM (n = 3) and are expressed as the percentage change from control conditions. *p < 0.05; **p < 0.01; ***p < 0.001 as determined by one-way ANOVA followed by Tukey’s post hoc analysis

[3] = tested on: in vitro BBB model (HBMEC monolayer); experiment: Permeability of paracellular marker Lucifer yellow-dextran across the in vitro BBB model (integrity control); assay type: cell-based, human; details: 10 kDa Lucifer yellow-dextran, any of the GI254023X concentrations, data not shown
PSAPP mice [4] = experiment: Aβ, soluble LRP1 and sAPPα levels in PSAPP mice following ADAM10 inhibition; assay type: in vivo, mouse; details: 200 mg/kg i.p. once per day for 5 days
Method: PSAPP mice at 35 weeks of age were injected intraperitoneally with 200 mg/kg of GI254023X or vehicle (DMSO) once per day for 5 consecutive days. At this age, PSAPP mice display elevated levels of Aβ peptides in the brain [22]. […] One hour after the final injection, the mice were euthanatized and plasma and brain tissue were collected. The right hemisphere was used to examine the levels of soluble and insoluble Aβ40 and Aβ42 in the brain. Briefly, the hemispheres were homogenized by sonication in 700 μl lysis buffer [M-PER + 1 % EDTA +0.2 % PMSF (Thermo Scientific, USA)] supplemented with Halt protease and phosphatase inhibitor cocktail (Thermo Scientific, USA) on ice before centrifugation at 14000g for 30 min at 4 °C. 100 μl of the resulting supernatant was mixed with 5 M guanidine in TRIS buffer resulting in the guanidine soluble (GS) fraction. For the guanidine insoluble (GI) fraction, 100 μl of the guanidine stock was combined with the original tissue pellet. Both GS and GI fractions were subsequently incubated at room temperature for 1 h and were mixed every 15 min. All samples were stored at −80 °C prior to analysis. Quantification of Aβ40 and Aβ42 in the GS, GI, and plasma fractions was determined using an ELISA for human Aβ40 and Aβ42 (Invitrogen, USA) and expressed as ng of Aβ per μg total protein. The left hemisphere was used to examine the levels of soluble LRP1 in the brain. Here, the hemisphere was homogenized using a Dounce homogenizer in ice cold in HBSS using the same procedure as the in vivo LRP1 shedding studies above. LRP1 levels in the soluble brain fraction and plasma were assessed using a mouse ELISA for LRP1 (Cedar Lane Labs, USA). Soluble brain LRP1 was normalized to the total protein content in the brain homogenate as determined by the BCA protein assay (Thermo Scientific, USA). Soluble brain LRP1 levels were expressed as ng of LRP1 per mg protein. Plasma LRP1 levels were expressed as ng/ml. In addition, sAPPα levels were examined in the brain homogenate of these same animals using an ELISA for sAPPα (IBL international, USA). The sAPPα levels were normalized to the total protein content in the brain homogenate as determined by the BCA protein assay and expressed as ng of sAPPα per mg protein.
Fig. 4 LRP1 shedding brain and plasma following ADAM10 modulation in a mouse model of AD. The ADAM10 inhibitor GI254023X (200 mg/kg) or vehicle (DMSO) was administered via intraperitoneal injection once per day for five consecutive days to PSAPP mice (35 weeks of age). One hour after the final injection, the brains and plasma was collected and the soluble brain fraction a and the plasma b was probed for LRP using an ELISA. Values represent mean ± SEM (n = 8–9 [soluble brain LRP1] or 5 [soluble plasma LRP1]) and are expressed as the amount of LRP per mg total protein or per ml. *p < 0.05 as determined by an unpaired t test
Fig. 5 Levels of sAPPα in the brain following ADAM10 modulation in a mouse model of AD. PSAPP mice (35 weeks of age) were treated in an acute 5-day treatment paradigm with ADAM10 inhibitor GI254023X (200 mg/kg) or vehicle (DMSO) which were administered via intraperitoneal injection. One hour after the final treatment, the brains were collected and sAPPα in the whole brain homogenate was probed using an sAPPα ELISA. Values represent mean ± SEM (n = 8–9) and are expressed as the amount of sAPPα per mg total protein. Statistical significance determined by an unpaired t test
Fig. 6 Aβ plasma levels following ADAM10 modulation in a mouse model of AD. The ADAM10 inhibitor GI254023X (200 mg/kg) or vehicle (DMSO) was administered via intraperitoneal injection once per day for five consecutive days to PSAPP mice (35 weeks of age). One hour after the final injection, the plasma was collected and probed for a Aβ40 and b Aβ42 by ELISA. Values represent mean ± SEM (n = 8–9) and are expressed as the amount of Aβ40 or Aβ42 per ml of plasma. […]

PSAPP mice [5] = experiment: Tolerability of the GI254023X treatment regimen in PSAPP mice; assay type: in vivo; details: 200 mg/kg i.p. once per day for 5 days
Method: PSAPP mice at 35 weeks of age were injected intraperitoneally with 200 mg/kg of GI254023X or vehicle (DMSO) once per day for 5 consecutive days. At this age, PSAPP mice display elevated levels of Aβ peptides in the brain [22]. […] One hour after the final injection, the mice were euthanatized and plasma and brain tissue were collected. The right hemisphere was used to examine the levels of soluble and insoluble Aβ40 and Aβ42 in the brain. […] Quantification of Aβ40 and Aβ42 in the GS, GI, and plasma fractions was determined using an ELISA for human Aβ40 and Aβ42 (Invitrogen, USA) and expressed as ng of Aβ per μg total protein. […] LRP1 levels in the soluble brain fraction and plasma were assessed using a mouse ELISA for LRP1 (Cedar Lane Labs, USA). Soluble brain LRP1 was normalized to the total protein content in the brain homogenate as determined by the BCA protein assay (Thermo Scientific, USA). Soluble brain LRP1 levels were expressed as ng of LRP1 per mg protein. Plasma LRP1 levels were expressed as ng/ml. […] The sAPPα levels were normalized to the total protein content in the brain homogenate as determined by the BCA protein assay and expressed as ng of sAPPα per mg protein.

mice = details: 200 mg/kg i.p. once per day for 5 consecutive days; cited from earlier work
Method: PSAPP mice at 35 weeks of age were injected intraperitoneally with 200 mg/kg of GI254023X or vehicle (DMSO) once per day for 5 consecutive days. At this age, PSAPP mice display elevated levels of Aβ peptides in the brain [22]. […] One hour after the final injection, the mice were euthanatized and plasma and brain tissue were collected. The right hemisphere was used to examine the levels of soluble and insoluble Aβ40 and Aβ42 in the brain. ...

[6] = PSAPP mice, guanidine insoluble fraction, ELISA, n = 8-9, not statistically significant
[7] = PSAPP mice, guanidine soluble fraction, ELISA, n = 8-9, not statistically significant

Compound | effect on Aβ42-induced extracellular LRP1 shedding ([1]; Aβ42 2 μM plus GI254023X 1 μM, n = 3) | transcytosis of fluorescein-Aβ across in vitro BBB model (trend) ([2]; GI254023X 0.1, 1, 10 μM apical) | increase of fluorescein-Aβ transcytosis across in vitro BBB model versus control ([2]; significant increases at concentrations higher than 1 μM GI254023X) | BBB permeability of the paracellular marker Lucifer yellow-dextran versus control [3] | reduction of soluble LRP1 in the brain versus vehicle (PSAPP mice [4]; PSAPP mice 35 weeks, 1 h after final injection, soluble brain fraction, ELISA, n = 8-9, p < 0.05) | reduction of insoluble Aβ40 in the brain versus vehicle (PSAPP mice [4]; [6]) | reduction of insoluble Aβ42 in the brain versus vehicle (PSAPP mice [4]; [6]) | reduction of soluble Aβ40 in the brain versus vehicle (PSAPP mice [4]; [7]) | reduction of soluble Aβ42 in the brain versus vehicle (PSAPP mice [4]; [7]) | LRP1 levels in the plasma versus vehicle (PSAPP mice [4]; PSAPP mice, plasma, ELISA, n = 5) | effect on Aβ42 plasma levels versus vehicle (PSAPP mice [4]; PSAPP mice, plasma, ELISA, n = 8-9) | increase of Aβ40 in the plasma versus vehicle (PSAPP mice [4]; PSAPP mice, plasma, ELISA, n = 8-9, significant) | level of sAPPα in the brain versus vehicle (PSAPP mice [4]; PSAPP mice, whole brain homogenate, sAPPα ELISA, n = 8-9) | tolerability of treatment regimen (appearance, behavior, weight loss) (PSAPP mice [5]) | ADAM10 activity in mice under this treatment regime (mice) | tolerability of treatment regime (mice) | extracellular shedding of LRP1 compared to control conditions ([1]; Aβ42 2 μM, mean ± SEM n = 3, significant (p < 0.05))
CNC(=O)[C@@H](NC(=O)[C@H](CCCc1ccccc1)[C@H](C)N(O)C=O)C(C)(C)C [GI254023X] | completely abrogated the effect of Aβ42 on shedding | increased following GI254023X treatment in a dose dependent manner | ≥ 1.25 fold | no significant difference | 60% | 1.20 fold | 1.20 fold | 1.15 fold | 1.25 fold | not significantly different | not significant | 1.45 fold | No significant difference | well tolerated | effectively inhibit ADAM10 activity | well tolerated with no adverse effects reported | –
Aβ42: human recombinant beta-amyloid 42 peptide, used to induce LRP1 shedding; fluorescein-labeled form used as transport probe | – | – | – | – | – | – | – | – | – | – | – | – | – | – | – | – | twofold
